This experiment has as its target T1, TON_0340 (Thermococcus onnurineus, UniProt B6YTD8).
T1 construct: C-terminal CPD-(His)10 fusion auto-cleaved with phytate; E. coli BL21(DE3) RIPL; assay sample from dissolved crystals, EDTA-treated
T1 sequence (B6YTD8 1-268): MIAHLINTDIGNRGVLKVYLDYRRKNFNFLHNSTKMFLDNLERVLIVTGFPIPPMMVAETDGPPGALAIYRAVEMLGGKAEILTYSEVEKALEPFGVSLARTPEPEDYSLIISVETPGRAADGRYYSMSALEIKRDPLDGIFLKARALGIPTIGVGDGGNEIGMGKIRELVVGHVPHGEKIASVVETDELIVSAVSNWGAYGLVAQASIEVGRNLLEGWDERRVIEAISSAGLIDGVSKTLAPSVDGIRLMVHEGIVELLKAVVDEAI
Briefly: inorganic phosphate release (EnzChek / malachite green). The settings on record: 2 mM AMP, 2 mM MnCl2, 100 mM HEPES pH 7.5, 100 mM NaCl, 37°C; Mn2+-dependent. The format is biochemical.

In the case of `Nc1ncnc2c1ncn2[C@@H]1O[C@H](COP(=O)(O)O)[C@@H](O)[C@H]1O` [AMP], the “inorganic phosphate release (EnzChek / malachite green)” value is “The highest activity was observed with AMP”.

These data come from publication PMC5132392, “Identification of a Highly Conserved Hypothetical Protein TON_0340 as a Probable Manganese-Dependent Phosphatase” (PLoS ONE, 2016).
